Experimental findings from paper PMC5127042, “A polysaccharide utilization locus from Flavobacterium johnsoniae enables conversion of recalcitrant chitin” (Biotechnology for Biofuels, 2016) are described below.

A word on the Kd: it is the constant that tells how readily two partners part at equilibrium. Low values mean higher affinity, high ones lower affinity.

One assay concerns the target T1, CusDI (Flavobacterium johnsoniae, UniProt A5FB66).
T1 construct: gene Fjoh_4558; residues 33-526, signal peptide removed, N-terminal His tag removed with TEV, E. coli Rosetta(DE3) pLysS
T1 sequence (A5FB66 33-526): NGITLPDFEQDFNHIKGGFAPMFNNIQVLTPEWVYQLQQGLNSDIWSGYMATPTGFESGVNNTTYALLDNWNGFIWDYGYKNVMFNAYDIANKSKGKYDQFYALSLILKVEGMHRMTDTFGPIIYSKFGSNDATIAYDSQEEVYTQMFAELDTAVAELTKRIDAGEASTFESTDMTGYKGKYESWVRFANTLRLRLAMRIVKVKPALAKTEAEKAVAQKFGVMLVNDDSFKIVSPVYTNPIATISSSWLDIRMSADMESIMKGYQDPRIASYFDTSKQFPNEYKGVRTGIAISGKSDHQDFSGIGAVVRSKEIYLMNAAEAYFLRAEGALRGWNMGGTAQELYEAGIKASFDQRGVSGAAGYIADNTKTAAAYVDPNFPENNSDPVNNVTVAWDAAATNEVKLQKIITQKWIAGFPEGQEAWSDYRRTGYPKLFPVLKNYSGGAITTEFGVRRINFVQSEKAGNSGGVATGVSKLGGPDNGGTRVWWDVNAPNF
Briefly: isothermal titration calorimetry. It is filed as binding. Conditions: 20 mM HEPES, 100 mM NaCl, pH 7.0, 25 °C, one-site model. From the text: isothermal titration calorimetry on CusDI
Background: ITC needs no label: the signal is the heat of the interaction.

The target in a further assay is T2, CusDII (Flavobacterium johnsoniae, UniProt A5FB55).
T2 construct: gene Fjoh_4561; residues 26-505 (crystal construct 35-505), signal peptide removed, N-terminal His tag removed with TEV, E. coli Rosetta(DE3) pLysS
T2 sequence (A5FB55 26-505): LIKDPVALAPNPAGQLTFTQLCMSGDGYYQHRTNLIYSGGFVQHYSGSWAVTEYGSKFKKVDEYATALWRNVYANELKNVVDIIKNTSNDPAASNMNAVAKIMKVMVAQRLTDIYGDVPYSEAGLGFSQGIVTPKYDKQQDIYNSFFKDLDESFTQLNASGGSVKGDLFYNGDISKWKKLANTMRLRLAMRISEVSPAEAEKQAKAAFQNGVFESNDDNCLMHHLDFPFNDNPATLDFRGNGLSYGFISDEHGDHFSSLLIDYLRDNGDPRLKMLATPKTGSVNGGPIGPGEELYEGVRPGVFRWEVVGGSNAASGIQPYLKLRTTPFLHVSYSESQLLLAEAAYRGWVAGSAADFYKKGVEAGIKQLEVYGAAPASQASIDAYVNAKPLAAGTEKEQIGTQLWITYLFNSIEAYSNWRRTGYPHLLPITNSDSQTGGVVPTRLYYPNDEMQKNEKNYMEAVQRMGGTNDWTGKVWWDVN
Briefly: isothermal titration calorimetry. Conditions: 20 mM HEPES, 100 mM NaCl, pH 7.0, 25 °C; independent site model. Type of assay: binding. From the text: isothermal titration calorimetry on CusDII

Molecules are shown by their SMILES.

As for `CC(=O)N[C@H]1[C@H](O[C@H]2[C@H](O)[C@@H](NC(C)=O)C(O)O[C@@H]2CO)O[C@H](CO)[C@@H](O)[C@@H]1O` (some centres unmarked) [Chitobiose], at CusDI, the Kd was determined as 25.6 ± 2.3 µM. On to `CC(=O)N[C@H]1[C@H](O[C@H]2[C@H](O)[C@@H](NC(C)=O)[C@H](O[C@H]3[C@H](O)[C@@H](NC(C)=O)C(O)O[C@@H]3CO)O[C@@H]2CO)O[C@H](CO)[C@@H](O[C@@H]2O[C@H](CO)[C@@H](O[C@@H]3O[C@H](CO)[C@@H](O[C@@H]4O[C@H](CO)[C@@H](O)[C@H](O)[C@H]4NC(C)=O)[C@H](O)[C@H]3NC(C)=O)[C@H](O)[C@H]2NC(C)=O)[C@@H]1O` (some centres unmarked) [Chitohexaose], for which the Kd on CusDI worked out at 16.1 ± 0.42 µM; on CusDII, 41.2 ± 1 µM. On the same counts, the results for `CC(=O)N[C@H]1[C@H](O[C@H]2[C@H](O)[C@@H](NC(C)=O)[C@H](O[C@H]3[C@H](O)[C@@H](NC(C)=O)C(O)O[C@@H]3CO)O[C@@H]2CO)O[C@H](CO)[C@@H](O[C@@H]2O[C@H](CO)[C@@H](O[C@@H]3O[C@H](CO)[C@@H](O)[C@H](O)[C@H]3NC(C)=O)[C@H](O)[C@H]2NC(C)=O)[C@@H]1O` (some centres unmarked) [Chitopentaose] are 12.8 ± 0.21 µM and 236 ± 8 µM. Compound `CC(=O)N[C@H]1[C@H](O[C@H]2[C@H](O)[C@@H](NC(C)=O)C(O)O[C@@H]2CO)O[C@H](CO)[C@@H](O[C@@H]2O[C@H](CO)[C@@H](O[C@@H]3O[C@H](CO)[C@@H](O)[C@H](O)[C@H]3NC(C)=O)[C@H](O)[C@H]2NC(C)=O)[C@@H]1O` (some centres unmarked) [Chitotetraose] came in with a Kd at CusDI (single titration) of 38.3 ± 4.3 µM.

Turning to `CC(=O)N[C@H]1[C@H](O[C@H]2[C@H](O)[C@@H](NC(C)=O)C(O)O[C@@H]2CO)O[C@H](CO)[C@@H](O[C@@H]2O[C@H](CO)[C@@H](O)[C@H](O)[C@H]2NC(C)=O)[C@@H]1O` (some centres unmarked) [Chitotriose], the Kd at CusDI is 8.51 ± 0.51 µM. As for `CC(=O)N[C@H]1C(O)O[C@H](CO)[C@@H](O)[C@@H]1O` (some centres unmarked) [GlcNAc], on CusDI (n constrained to 1), the Kd came to 1470 ± 210 µM.
